For eleven compounds, TGI and GI50 results are on record in PubChem BioAssay (NCI).

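Growth conditions: 96-well plates. Treatment: test compound, 48 hours, 5 concentrations. Analysis: linear interpolation between bracketing concentrations; unreached endpoints set to highest concentration. GI50 = concentration required for 50% inhibition of growth. TGI denotes the concentration required for complete inhibition of growth.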 Where only a bound is given, the exact number is not on record here.

Some test systems named below: IGROV1 ovarian; HT29 colon; NCI-H23 lung; OVCAR-8 ovarian; NCI-H226 lung; COLO 205 colon; CCRF-CEM leukemia; HCT-116 colon; HL-60(TB) leukemia.
Common to all, as to assay: growth of human tumour cells (NCI), 48 h

As to `CC1(C2CCC3(C)OC3C2)CO1` (configuration not stated), the TGI in the assay with IGROV1 ovarian, in the assay with HT29 colon, in the assay with NCI-H23 lung, with OVCAR-8 ovarian, in the assay with NCI-H226 lung and in the assay with COLO 205 colon was more than 100 µM in each case. Besides, the TGI with CCRF-CEM leukemia, with HCT-116 colon and in the assay with HL-60(TB) leukemia was more than 100 µM in each case.

Regarding `COC(=O)[C@@H]1CN(C(=O)c2ccccc2)C(=O)N1C(=O)OCc1ccccc1`, the TGI in the assay with IGROV1 ovarian, in the assay with HT29 colon, in the assay on NCI-H23 lung, in the assay on OVCAR-8 ovarian, in the assay with NCI-H226 lung and with COLO 205 colon was more than 100 µM throughout. Further, the TGI with CCRF-CEM leukemia, in the assay on HCT-116 colon and in the assay on HL-60(TB) leukemia was more than 100 µM each time.

As to `Cc1ccc(S(=O)(=O)N(CC(O)COc2ccccc2)c2ccc(F)cc2F)cc1` (configuration not stated), the TGI with HT29 colon was 29.4 µM; in the assay on NCI-H23 lung, 27.7 µM; with OVCAR-8 ovarian, 31.3 µM; with NCI-H226 lung, 41.9 µM; with COLO 205 colon, 28.6 µM; in the assay on CCRF-CEM leukemia it was 53.8 µM. Further, the TGI with HL-60(TB) leukemia was found to be 57.6 µM.

In the case of `C#CCC1(C(=O)OCC)C(=O)c2ccccc2N(C)C1=O` (configuration not stated), the TGI is more than 100 µM in the assay on IGROV1 ovarian; more than 100 µM in the assay with HT29 colon; 36.9 µM with NCI-H23 lung; more than 100 µM in the assay on OVCAR-8 ovarian; more than 100 µM with NCI-H226 lung; more than 100 µM in the assay with COLO 205 colon. The TGI with CCRF-CEM leukemia and with HL-60(TB) leukemia was more than 100 µM each time.

As to `CC(=O)O[C@H]1CC[C@@]2(C)[C@H](CC[C@@H]3[C@@H]2CC[C@]2(C)[C@@H](c4ccc(=O)oc4)C[C@H]4O[C@]342)C1`, the TGI in the assay with IGROV1 ovarian was found to be 11.3 µM; in the assay with HT29 colon, 12.7 µM; with NCI-H23 lung, 1.83 µM; in the assay with OVCAR-8 ovarian, 4.1 µM; in the assay with NCI-H226 lung it was 7.75 µM; with COLO 205 colon it was 14.2 µM. Besides, the TGI turned out to be 1.52 µM in the assay on CCRF-CEM leukemia, 4.63 µM in the assay on HCT-116 colon and 0.592 µM in the assay with HL-60(TB) leukemia.

Take `CCC(CC(C)C)Nc1ccc(NC(CC)CC(C)C)cc1` (configuration not stated): the GI50 in the assay on IGROV1 ovarian is 27.1 µM; in the assay with HT29 colon, 15.1 µM; in the assay with NCI-H23 lung, 18.2 µM; in the assay with OVCAR-8 ovarian it was 18.2 µM; in the assay on NCI-H226 lung, 15.3 µM; in the assay with COLO 205 colon, 11 µM. Further, the figures for the GI50 in the assay on CCRF-CEM leukemia, in the assay with HCT-116 colon and with HL-60(TB) leukemia were 6.6 µM, 14.1 µM and 10.6 µM, respectively. Further, the TGI in the assay with IGROV1 ovarian worked out at 78.7 µM; in the assay on HT29 colon, 30.5 µM; in the assay on NCI-H23 lung, 46.3 µM; in the assay on OVCAR-8 ovarian it was 34.2 µM; with NCI-H226 lung it was 29.9 µM; in the assay with COLO 205 colon, 23 µM. The TGI amounted to 27.8 µM in the assay on CCRF-CEM leukemia, 28.3 µM in the assay on HCT-116 colon and 30.2 µM with HL-60(TB) leukemia.

For `O=C(/C=C/c1cccs1)c1ccccc1Cl`, the TGI in the assay on IGROV1 ovarian was more than 65 µM; in the assay with HT29 colon, 42.5 µM; in the assay on NCI-H23 lung, 25.8 µM; in the assay on OVCAR-8 ovarian it was more than 100 µM; in the assay on NCI-H226 lung, more than 65.7 µM; with COLO 205 colon, 38.6 µM. Further, the TGI in the assay with CCRF-CEM leukemia came to 33.9 µM; in the assay with HCT-116 colon it was 25.7 µM; in the assay with HL-60(TB) leukemia, 30.4 µM.

`CC(C)(C)OC(=O)n1cc(C2CN(O)C(=O)C23CCC(=O)N3Cc2ccccc2)c2ccccc21` (configuration not stated): the TGI in the assay on IGROV1 ovarian was 48.5 µM; with HT29 colon, more than 100 µM; with NCI-H23 lung, more than 100 µM; with NCI-H226 lung, 62 µM; in the assay with COLO 205 colon, more than 100 µM; in the assay with CCRF-CEM leukemia, more than 100 µM. In addition, the TGI with HCT-116 colon and in the assay on HL-60(TB) leukemia was more than 100 µM in each case.

Consider `CO[C@]1(CN2CCN3CCCC[C@@H]3C2)/C=C/C[C@H](C)[C@@H](C)S(=O)(=O)NC(=O)c2ccc3c(c2)N(C[C@@H]2CC[C@H]21)C[C@@]1(CCCc2cc(Cl)ccc21)CO3`, for which the GI50 in the assay on NCI-H23 lung was 1.03 µM; in the assay on CCRF-CEM leukemia it was 1.44 µM; in the assay with HCT-116 colon it was 2.01 µM; with HL-60(TB) leukemia it was 0.0297 µM. Moreover, the TGI in the assay on NCI-H23 lung is 2.29 µM; in the assay with CCRF-CEM leukemia it was 13.3 µM; in the assay with HCT-116 colon, 4.79 µM; in the assay with HL-60(TB) leukemia, 0.153 µM.

Turning to `Cc1csc(NC(=NCCN2CCOCC2)Nc2nc(C)cs2)n1`, the TGI in the assay with IGROV1 ovarian, in the assay on HT29 colon, with NCI-H23 lung, with OVCAR-8 ovarian, with NCI-H226 lung and with COLO 205 colon was more than 100 µM in each case. The TGI in the assay on CCRF-CEM leukemia, in the assay on HCT-116 colon and with HL-60(TB) leukemia was more than 100 µM in each case.

Consider `CC(=O)CC(=O)CCC(=O)O`, for which the TGI with IGROV1 ovarian, in the assay with HT29 colon, in the assay on NCI-H23 lung, in the assay with OVCAR-8 ovarian, with NCI-H226 lung and in the assay with COLO 205 colon was more than 100 µM each time. The TGI with HCT-116 colon and in the assay on HL-60(TB) leukemia was more than 100 µM throughout.
